Read-outs that look alike come from different tables or passages of the source.
Legend:
DARPP-32 = conditions: chronic administration in rats; cited from earlier work
Thr34-DARPP-32 = test: In vivo phosphorylation of DARPP-32 at Thr34 in mouse striatum (immunoblot, phosphorylation state-specific antibodies); design: species or system mice; conditions: for Thr34-DARPP-32 phosphorylation level (mean): eticlopride 0.5, haloperidol 0.2, clozapine 5 mg/kg i.p., time 0 control = 100
Experimental: (§1) Male C57/BL6 mice (groups of six) were administered intraperitoneal injections of one of three anti-psychotic compounds, haloperidol (a typical anti-psychotic), clozapine (an atypical anti-psychotic), or eticlopride (a selective dopamine D2 receptor antagonist). All animals were sacrificed by decapitation at 15, 30, or 60 minutes post-injection. After decapitation, the heads were immediately immersed in liquid nitrogen for 6 seconds to inactivate all protein activity. The brains were then dissected on an ice-cold surface and the striata removed and sonicated in 750 μl of 1% SDS, and then boiled for 10 minutes. Levels of phosphorylated DARPP-32, CREB, and ERK1 and ERK2 were then determined.
(§2) In order to determine levels of phosphoproteins in brain tissue, aliquots of the brain homogenate were loaded onto 10% polyacrylamide gels and the proteins separated by SDS/PAGE analysis, and then transferred to poly(vinylidene difluoride) membranes as described by Towbin and colleagues (Towbin, H. et al. 1979. Proc. Natl. Acad. Sci. USA 76:4350-4354). The effect of the drugs on the phosphorylation of DARPP-32 at two sites (Thr34 and Thr75), ERK1 at two sites (Thr202 and Tyr204), ERK2 at two sites (Thr185 and Tyr187), and CREB at one site (Ser133) was assessed using phosphorylation state-specific antibodies according to standard methods. Anti-phospho-ERK1 and anti-phospho-ERK2 antibodies were obtained from Cell Signaling Technology (Beverly, Mass.). Anti-phospho-CREB antibody was obtained from Upstate Biotechnology (Lake Placid, N.Y.). Anti-phospho-DARPP32 antibodies were used that had been produced according to the methods disclosed in U.S. patent application Ser. No. 09/419,379, by Bibb et al., entitled “Methods of Identifying Agents That Regulate Phosphorylation/Dephosphorylation in Dopamine Signaling,” filed Oct. 15, 1999, and Ser. No. 09/687,959, by Bibb et al., entitled “Methods of Identifying Agents That Regulate Phosphorylation/Dephosphorylation in Dopamine Signaling,” filed Oct. 13, 2000, (each of which is incorporated herein by reference in its entirety). These methods were used to produce phosphorylation state-specific antibodies having specificity for Thr34-phosphorylated and Thr75-phosphorylated DARPP-32.

Thr202- and Tyr204- ERK1 = test: In vivo phosphorylation of ERK1 in mouse striatum (immunoblot, phosphorylation state-specific antibodies); conditions: for Thr202- and Tyr204- ERK1 phosphorylation level (mean): eticlopride 0.5, haloperidol 0.2, clozapine 5 mg/kg i.p., time 0 control = 100; for levels of phospho-ERK1 (in words): haloperidol 0.2 mg/kg, eticlopride 0.5 mg/kg
Thr75-DARPP-32 = test: In vivo phosphorylation of DARPP-32 at Thr75 in mouse striatum (immunoblot, phosphorylation state-specific antibodies); conditions: for Thr75-DARPP-32 phosphorylation level (mean): eticlopride 0.5, haloperidol 0.2, clozapine 5 mg/kg i.p., time 0 control = 100
Thr185- and Tyr187- ERK2 = test: In vivo phosphorylation of ERK2 in mouse striatum (immunoblot, phosphorylation state-specific antibodies); design: species or system mice; conditions: for Thr185- and Tyr187- ERK2 phosphorylation level (mean): eticlopride 0.5, haloperidol 0.2, clozapine 5 mg/kg i.p., time 0 control = 100; for levels of phospho-ERK2 (in words): haloperidol 0.2 mg/kg, eticlopride 0.5 mg/kg
Experimental: as §1, §2

Ser133-CREB = test: In vivo phosphorylation of CREB in mouse striatum (immunoblot, phosphorylation state-specific antibodies); design: species or system mice; conditions: for Ser133-CREB phosphorylation level (mean): eticlopride 0.5, haloperidol 0.2, clozapine 5 mg/kg i.p., time 0 control = 100; for levels of phospho-CREB (in words): haloperidol 0.2 mg/kg, eticlopride 0.5 mg/kg
Experimental: as §1, §2

c-fos = conditions: dorsal striatum; cited from earlier work
DOI-induced behaviors = conditions: rats; 30 min pretreatment i.p.; fixed dose of DOI 3.0 mg/kg; cited from earlier work

## N[C@@H]1C[C@H]1c1ccccc1 (racemic) [tranylcypromine]
DARPP-32
  frontal cortex levels of DARPP-32 immunoreactivity: significant increases

## CN1CCN(C2=Nc3cc(Cl)ccc3Nc3ccccc32)CC1 [Clozapine, clozapine]
Thr34-DARPP-32; 15 min post-injection
  Thr34-DARPP-32 phosphorylation level (mean): 188
Thr34-DARPP-32; 30 min post-injection
  Thr34-DARPP-32 phosphorylation level (mean): 209
Thr34-DARPP-32; 60 min post-injection
  Thr34-DARPP-32 phosphorylation level (mean): 222
Thr202- and Tyr204- ERK1; 15 min post-injection
  Thr202- and Tyr204- ERK1 phosphorylation level (mean): 90
Thr202- and Tyr204- ERK1; 30 min post-injection
  Thr202- and Tyr204- ERK1 phosphorylation level (mean): 75
Thr202- and Tyr204- ERK1; 60 min post-injection
  Thr202- and Tyr204- ERK1 phosphorylation level (mean): 33
Thr75-DARPP-32; 15 min post-injection
  Thr75-DARPP-32 phosphorylation level (mean): 179
Thr75-DARPP-32; 30 min post-injection
  Thr75-DARPP-32 phosphorylation level (mean): 216
Thr75-DARPP-32; 60 min post-injection
  Thr75-DARPP-32 phosphorylation level (mean): 203
Thr185- and Tyr187- ERK2; 15 min post-injection
  Thr185- and Tyr187- ERK2 phosphorylation level (mean): 62
Thr185- and Tyr187- ERK2; 30 min post-injection
  Thr185- and Tyr187- ERK2 phosphorylation level (mean): 41
Thr185- and Tyr187- ERK2; 60 min post-injection
  Thr185- and Tyr187- ERK2 phosphorylation level (mean): 15
Ser133-CREB; 15 min post-injection
  Ser133-CREB phosphorylation level (mean): 51
Ser133-CREB; 30 min post-injection
  Ser133-CREB phosphorylation level (mean): 62
Ser133-CREB; 60 min post-injection
  Ser133-CREB phosphorylation level (mean): 57

## CCc1cc(Cl)c(OC)c(C(=O)NC[C@@H]2CCCN2CC)c1O [Eticlopride, eticlopride]
Thr34-DARPP-32; 15 min post-injection
  Thr34-DARPP-32 phosphorylation level (mean): 192
Thr34-DARPP-32; 30 min post-injection
  Thr34-DARPP-32 phosphorylation level (mean): 226
Thr34-DARPP-32; 60 min post-injection
  Thr34-DARPP-32 phosphorylation level (mean): 190
Thr202- and Tyr204- ERK1; 15 min post-injection
  Thr202- and Tyr204- ERK1 phosphorylation level (mean): 223
Thr202- and Tyr204- ERK1; 30 min post-injection
  Thr202- and Tyr204- ERK1 phosphorylation level (mean): 207
Thr202- and Tyr204- ERK1; 60 min post-injection
  Thr202- and Tyr204- ERK1 phosphorylation level (mean): 170
Thr202- and Tyr204- ERK1
  levels of phospho-ERK1 (in words): significant increases
Thr75-DARPP-32; 15 min post-injection
  Thr75-DARPP-32 phosphorylation level (mean): 80
Thr75-DARPP-32; 30 min post-injection
  Thr75-DARPP-32 phosphorylation level (mean): 70
Thr75-DARPP-32; 60 min post-injection
  Thr75-DARPP-32 phosphorylation level (mean): 80
Thr75-DARPP-32; at 30 minutes
  DARPP-32 phosphorylation at Thr75 (in words): decreased
Thr185- and Tyr187- ERK2
  time after administration at which phospho-ERK2 levels returned to control levels: 30 min
  levels of phospho-ERK2 (in words): significant increases
Thr185- and Tyr187- ERK2; 15 min post-injection
  Thr185- and Tyr187- ERK2 phosphorylation level (mean): 132
Thr185- and Tyr187- ERK2; 30 min post-injection
  Thr185- and Tyr187- ERK2 phosphorylation level (mean): 97
Thr185- and Tyr187- ERK2; 60 min post-injection
  Thr185- and Tyr187- ERK2 phosphorylation level (mean): 96
Ser133-CREB
  time after administration at which phospho-CREB levels returned to control levels: 60 min
  levels of phospho-CREB (in words): significant increases
Ser133-CREB; 15 min post-injection
  Ser133-CREB phosphorylation level (mean): 167
Ser133-CREB; 30 min post-injection
  Ser133-CREB phosphorylation level (mean): 146
Ser133-CREB; 60 min post-injection
  Ser133-CREB phosphorylation level (mean): 123

## O=C(CCCN1CCC(O)(c2ccc(Cl)cc2)CC1)c1ccc(F)cc1 [Haloperidol, haloperidol]
Thr34-DARPP-32; 15 min post-injection
  Thr34-DARPP-32 phosphorylation level (mean): 195
Thr34-DARPP-32; 30 min post-injection
  Thr34-DARPP-32 phosphorylation level (mean): 196
Thr34-DARPP-32; 60 min post-injection
  Thr34-DARPP-32 phosphorylation level (mean): 155
Thr34-DARPP-32; at 60 minutes
  Thr34 phosphorylation (in words): no statistical difference from controls
Thr34-DARPP-32; for up to 30 minutes
  Thr34 phosphorylation (in words): increased
DARPP-32
  frontal cortex levels of DARPP-32 immunoreactivity: without effects
c-fos
  inducing c-fos expression, as compared to clozapine: much more effective
Thr202- and Tyr204- ERK1; 15 min post-injection
  Thr202- and Tyr204- ERK1 phosphorylation level (mean): 231
Thr202- and Tyr204- ERK1; 30 min post-injection
  Thr202- and Tyr204- ERK1 phosphorylation level (mean): 187
Thr202- and Tyr204- ERK1; 60 min post-injection
  Thr202- and Tyr204- ERK1 phosphorylation level (mean): 169
Thr202- and Tyr204- ERK1
  levels of phospho-ERK1 (in words): significant increases
Thr75-DARPP-32
  DARPP-32 phosphorylation at Thr75 (in words): without effect
Thr75-DARPP-32; 15 min post-injection
  Thr75-DARPP-32 phosphorylation level (mean): 133
Thr75-DARPP-32; 30 min post-injection
  Thr75-DARPP-32 phosphorylation level (mean): 144
Thr75-DARPP-32; 60 min post-injection
  Thr75-DARPP-32 phosphorylation level (mean): 138
Thr185- and Tyr187- ERK2
  time after administration at which phospho-ERK2 levels returned to control levels: 30 min
  levels of phospho-ERK2 (in words): significant increases
Thr185- and Tyr187- ERK2; 15 min post-injection
  Thr185- and Tyr187- ERK2 phosphorylation level (mean): 151
Thr185- and Tyr187- ERK2; 30 min post-injection
  Thr185- and Tyr187- ERK2 phosphorylation level (mean): 114
Thr185- and Tyr187- ERK2; 60 min post-injection
  Thr185- and Tyr187- ERK2 phosphorylation level (mean): 107
Ser133-CREB
  time after administration at which phospho-CREB levels returned to control levels: 30 min
  levels of phospho-CREB (in words): significant increases
Ser133-CREB; 15 min post-injection
  Ser133-CREB phosphorylation level (mean): 148
Ser133-CREB; 30 min post-injection
  Ser133-CREB phosphorylation level (mean): 131
Ser133-CREB; 60 min post-injection
  Ser133-CREB phosphorylation level (mean): 114
DOI-induced behaviors
  effect on the three behavioral effects of DOI (head-and-body shakes, forepaw tapping, skin-jerks): antagonize

## COc1cccc([C@H](O)C2CCN(CCc3ccc(F)cc3)CC2)c1OC [M100907]
DOI-induced behaviors
  effect on the three behavioral effects of DOI (head-and-body shakes, forepaw tapping, skin-jerks): antagonize

## CCNC(=O)N1CCN(CCCC(c2ccc(F)cc2)c2ccc(F)cc2)CC1 [amperozide]
DOI-induced behaviors
  effect on the three behavioral effects of DOI (head-and-body shakes, forepaw tapping, skin-jerks): antagonize

## COc1cc(C(C)=O)ccc1OCCCN1CCC(c2noc3cc(F)ccc23)CC1 [iloperidone]
DOI-induced behaviors
  effect on the three behavioral effects of DOI (head-and-body shakes, forepaw tapping, skin-jerks): antagonize

## CN(C)CCCN1c2ccccc2CCc2ccccc21 [imipramine]
DARPP-32
  frontal cortex levels of DARPP-32 immunoreactivity: significant increases

## CN1CC[C@]23c4c5ccc(O)c4O[C@H]2[C@@H](O)C=C[C@H]3[C@H]1C5 [morphine]
DARPP-32
  frontal cortex levels of DARPP-32 immunoreactivity: without effects

## CCN1CCC[C@H]1CNC(=O)c1c(OC)ccc(Br)c1OC [remoxipride]
DOI-induced behaviors
  effect on the three behavioral effects of DOI (head-and-body shakes, forepaw tapping, skin-jerks): antagonize

## Cc1nc2n(c(=O)c1CCN1CCC(c3noc4cc(F)ccc34)CC1)CCCC2 [risperidone]
DOI-induced behaviors
  effect on the three behavioral effects of DOI (head-and-body shakes, forepaw tapping, skin-jerks): antagonize

## Cc1nc2sccn2c(=O)c1CCN1CCC(=C(c2ccc(F)cc2)c2ccc(F)cc2)CC1 [ritanserin]
DOI-induced behaviors
  effect on the three behavioral effects of DOI (head-and-body shakes, forepaw tapping, skin-jerks): antagonize

## N alpha MeArg-Lys-Pro-Trp-Tle-Leu [NT1]
DOI-induced behaviors
  effect on the three behavioral effects of DOI (head-and-body shakes, forepaw tapping, skin-jerks): antagonize
